Experimental data published in US20260000763A1, “Methods of Manufacturing Therapeutic Cells” (The Board of Trustees of the Leland Stanford Junior …, priority 2022, published 2026).
“Also recorded” adds a separate entry of the source.

Tests used:
[1] = tested on: Nalm6 tumor line; assay: Co-culture of CD19.28 CAR T cells with Nalm6: IncuCyte killing and cytokine ELISA; format: cell-based
Experimental: In this example, CD19.28 CAR T cells were cultured in regular complete RPMI media until day 4, and then the cells were split between 11 mM glucose-(CTR) or 11 mM inosine-(INO) containing media (unless stated otherwise). A: Annexin 5 staining was performed at day 17 post-activation. Representative histograms of n=3 donors are shown. B: Surface CD19.28 CAR expression at day 14 post-activation. C: MFI of CAR molecules on CD19.28z CAR T cell surface at day 14 post activation. D: Ratio of CD4+vs CD8+CD19.28 CAR T cells at day 14 post-activation. E: CD19.28z CAR T cells were co-cultured with cells of the Nalm6 tumor line (1:8 E: T) for 75 hrs in an IncuCyte assay. […] Representative donor of n=3 is shown. F: Control media was replaced by INO+ media at the indicated day post activation. At day 14, cells were stimulated with Nalm6 tumor line, and IL-2 and IFNγ secretion was assessed by ELISA. […] For A and B, P values were determined by paired two-tailed t-tests. […] For F and G, P values were determined by unpaired two-tailed t-tests.
In this example, CD19.28 CAR T cells were generated using a retroviral vector and at day 4 post-activation, the cells were split between 11 mM glucose-(CTR) or 11 mM inosine-(INO) containing media (unless stated otherwise). Tested first was whether the absence of glucose in the culture media has a negative effect on the viability of CAR T cells.
Tumor antigen density is one of the most important factors affecting the efficacy of CAR T immunotherapy. Therefore, assessed next was whether growing CAR T cells in inosine-containing media improves their effector function against low antigen expressing tumor lines.

[2] = tested on: HA CAR T cells; assay: Phenotype of tonically signaling (exhausted) HA CAR T cells expanded in inosine media (flow cytometry, CyTOF); format: cell-based, human; settings: for CD62L expression / frequency of central memory cells: CD8+ HA-CAR T cells, day 21, INO in presence or absence of glucose
Experimental: A: CD4+vs CD8+ ratio at day 14 post-activation. N-7 donors. P values were determined by paired two-tailed t-tests. […] C: IL-2 and IFNγ secretion at day 14 post-activation. P values were determined by unpaired two-tailed t-tests.
In this example, CAR T cells were cultured in control media until day 4 post activation, followed by continued expansion in regular or inosine-containing media. Phenotype of the cells was assessed by flow cytometry at day 21 post activation. A: Frequency of CD62L+ and CCR7+HA CAR+ T cells in 8 different donors. Representative histograms are shown. B: Relative frequency of central memory (CM), naïve, terminally differentiated (TEMRA) and effector memory (EM) HA CAR T cells. N=8 donors. C: Frequency of CD62L+ and CCR7+CD19.28 CAR+ T cells in 8 different donors. Representative histograms are shown. D: Relative frequency of central memory (CM), naïve, terminally differentiated (TEMRA) and effector memory (EM) CD19.28 CAR T cells. N=8 donors.
N=2-6 donors from independent experiments.
(Top) Dot plots of representative donor shown.
9A: Schematic of the experimental design. […] Graphs represent median expression of indicated markers. […] Representative donor of n=2 donor shown. […] Data are mean+SD from triplicate wells. […] 9K: Schematic of the experimental design. […] Representative donor of n=3 donor shown. […] Representative donor of n=2 donor shown. […] (Top) Dot plots of representative donor shown. […] Representative donor of n=3 donor shown. […] N=2-4 donors from independent experiments. […] N=2-6 donors from independent experiments. […] N=2-4 donors from independent experiments. […] (Top) representative dot plots shown.
Transcriptomic and epigenetic hallmarks of exhaustion occur within 10-12 days in the HA-CAR model. To determine if INO can induce a stem-like phenotype in already exhausted T cells, HA-CAR T cells were exposed to INO on day: 4, 7, 10 and 14 post-activation, analyzing phenotype and function (FIG. 9K).
HA-CAR T cells were cultured from day 4 post-activation in control media containing glucose (11 mM), inosine only at 11 mM (INO), media containing both inosine and glucose at 11 mM or media without glucose or inosine.
To assess whether the observed increase in stemness and functionality is attributable to inosine addition or glucose deprivation, HA-CAR T cells were cultured from day 4 post-activation in control media containing 11 mM glucose (CTR), no glucose and no inosine (starvation condition), 11 mM inosine only (INO), or media containing both inosine and glucose (FIG. 7A). Proliferation was assessed at day 10.

[3] = tested on: HA-CAR T cells; assay: Expansion of HA-CAR T cells in media with glucose and/or inosine; inosine dose response; format: cell-based, human
[4] = tested on: GD2.bbz-CAR T cells; assay: GD2.bbz-CAR T cells manufactured in GMP-grade AIM 5 media with increasing inosine; format: cell-based
From the text: FIG. 8B: Expansion rate of GD2.bbz-CAR T cells between day 3 and day 6 post-activation of CAR T cells grown in AIM 5 containing indicated concentration of inosine. N=4 donors from independent experiments.
FIG. 8C: Viability of GD2.bbz-CAR T cells cultured for 4 days in AIM 5 containing indicated concentration of inosine at day 6 post-activation. N=4 donors from independent experiments.
FIG. 8D: GD2.bbz-CAR T cells grown in media containing indicated inosine concentration between day 3 and day 8 post-activation and stimulated with 143b or Nalm6-GD2 tumor. IFNγ secretion after 24 hrs of co-culture was measured. Data are mean+s.d. of duplicate or triplicate wells. Representative of n=2 donors shown.
Next, to test this therapeutic window in the clinical context, GD2-CAR T cells were manufactured and determined to have anti-tumor activity in diffuse midline gliomas (DMGs) using GMP-grade AIM 5 media with increasing concentrations of INO (FIG. 8A).

[5] = tested on: HA-CAR T cells; assay: Mass cytometry single cell metabolic regulome profiling; format: cell-based, human; settings: CyTOF, day 14
From the text: INO cultured cells also expressed higher levels of enzymes associated with glutaminolysis (GLS, GPT2), and TCA activity (IDH1, IDH2, CS, SDHA), consistent with INO induced glutamine catabolismdriving TCA through anapleurosis (FIG. 11D). Proteins of complex I and complex V of the electron transport chain were also elevated, consistent with higher oxidative phosphorylation.

[6] = day 21, inosine supplementation

O=c1[nH]cnc2c1ncn2[C@@H]1O[C@H](CO)[C@@H](O)[C@H]1O [inosine, Inosine]
tumor killing ([1]; Nalm6, 1:8 E:T, 75 hrs IncuCyte, cells expanded in 11 mM inosine vs glucose): increased tumor killing | secretion of IFNγ ([1]; Nalm6 expressing medium or low levels of surface CD19, day 14): significantly increased secretion | effector cytokine secretion (IL-2, IFNγ) ([1]; stimulated with Nalm6 at day 14, ELISA): increased | CD62L expression [2]: significantly enhanced CD62L expression | frequency of central memory cells [2]: significantly enhanced | CD62L expression ([2]; listed as INO): enhanced CD62L expression | frequency of central memory cells ([2]; listed as INO): enhanced | frequency of CD8+ cells ([2]; HA CAR T cells in INO+ media vs control, day 14): increased the frequency of CD8+ cells | expression of memory markers CD62L and CCR7 ([2]; HA CAR T cells in INO+ media, day 21): higher expression | frequency of CD8+CD62L+ HA-CAR T cells ([2]; INO added on day 4, 7, 10 or 14 post-activation, assessed day 21): increased frequency | frequency of terminally differentiated and effector cells [2, 6]: decreased frequency | percentage of naïve and central memory HA CAR T cells [2, 6]: elevated percentage | CD62L levels ([2]; flow cytometry, CD8+ and CD4+ HA-CAR T cells, day 21): higher levels | dose response on diminished proliferation, increased CD62L expression and increased IFNγ production ([3]; 0-11 mM INO in RPMI containing 11 mM glucose, without a plateau): clear dose dependent effect | expansion of HA-CAR T cells ([3]; day 4 to day 10, 11 mM INO in presence or absence of 11 mM glucose, listed as INO): diminished expansion; also recorded: significantly reduced expansion | cell proliferation ([4]; AIM 5 with increasing INO, day 3 to day 6): significantly decreased cell proliferation | CAR T cell viability ([4]; AIM 5 with increasing INO, day 6): no significant changes | secretion of IFNγ ([4]; challenged with 143b (low GD2) or Nalm6-GD2 (high GD2), 24 hrs): increase in secretion of IFNγ | enzymes associated with glutaminolysis (GLS, GPT2) and TCA activity (IDH1, IDH2, CS, SDHA) [5]: higher levels | expression of CAT2 [5]: increased | proteins of complex I and complex V of the electron transport chain [5]: elevated
